Data on five compounds can be found in ChEMBL document CHEMBL5532715, “Rogersonins C-F, 9H-Imidazo[2,1-i]purine-Incorporating Adenine-Polyketide Hybrids from an Ophiocordyceps-Associated Clonostachys rogersoniana” (2024).

Structures are written as SMILES. The source made the active and inactive calls. The rule behind the calls is not given here.

For experiment [1], the system named is MDA-MB-231. The experiment is described as follows: Antiproliferative activity against human MDA-MB-231 cells incubated for 72 hrs by MTT assay. The class given is functional, cell-based. Background: Tetrazolium dyes change colour on reduction, which living cells bring about.
Another experiment relates to MCF7. The experiment is described as follows: Antiproliferative activity against human MCF7 cells incubated for 72 hrs by MTT assay. The class given is functional, cell-based.
Experiment [2] concerns A549. The experiment is described as follows: Antiproliferative activity against human A549 cells incubated for 72 hrs by MTT assay. Type of experiment: functional, cell-based.
The nature of experiment [3]: Downregulation of cell surface PD-L1 expression in human MDA-MB-231 cells assessed as mean fluorescence intensity at […] incubated for 24 hrs by phycoerythrin staining based flow cytometry analysis (reference value: 1156). Type of experiment: functional.
Experiment [4] is described as follows: Downregulation of cell surface PD-L1 expression in human MDA-MB-231 cells assessed as mean fluorescence intensity at 5 uM incubated for 24 hrs by phycoerythrin staining based flow cytometry analysis (reference value: 1156). Type of experiment: functional.
The nature of experiment [5]: Downregulation of cell surface PD-L1 protein expression in human MDA-MB-231 cells assessed as test to control ratio at 5 uM incubated for 24 hrs by Western blot analysis. The class given is functional. Background: A western blot detects proteins with antibodies after separation by electrophoresis.
Experiment [6] in a line: Downregulation of cell surface PD-L1 protein expression in human A549 cells assessed as test to control ratio at 5 uM incubated for 24 hrs by Western blot analysis. Type of experiment: functional.
Experiment [7] relates to MDA-MB-231. The experiment is described as follows: Effect on CD274 mRNA expression in human MDA-MB-231 cells at 5 to 10 uM hrs by real-time quantitative-PCR analysis. Type of experiment: functional, cell-based. Conditions: dose 5-10 µM.
For experiment [8], the system named is A549. Briefly: Effect on CD274 mRNA expression in human A549 cells at 5 to 10 uM hrs by real-time quantitative-PCR analysis. The class given is functional, cell-based. Conditions: dose 5-10 µM.
Experiment [9] is described as follows: Downregulation of cell surface PD-L1 expression in human MDA-MB-231 cells assessed as mean fluorescence intensity at 10 uM incubated for 24 hrs by phycoerythrin staining based flow cytometry analysis (reference value: 1156). The class given is functional. For orientation: In flow cytometry, cells or beads pass a laser one at a time.
Experiment [10] in a line: Downregulation of cell surface PD-L1 protein expression in human MDA-MB-231 cells assessed as test to control ratio at 10 uM incubated for 24 hrs by Western blot analysis. The class given is functional.
Experiment [11] can be described thus: Downregulation of cell surface PD-L1 protein expression in human A549 cells assessed as test to control ratio at 10 uM incubated for 24 hrs by Western blot analysis. Type of experiment: functional.

For `C[C@@H]1OC(=O)/C=C/[C@@H](O)CC[C@H](C)OC(=O)[C@H](n2cnc3c2ncn2c4c(nc32)[C@H](C)OC(=O)/C=C/[C@@H](O)CC[C@H](C)OC(=O)C4)CC1=O`, the result in the experiment on MDA-MB-231 [1], in the experiment with MCF7 and in the experiment with A549 [2] was inactive.

On to `CN(C)C(=N)NC(=N)N` [METFORMIN], for which the Flu intensity in experiment [3] worked out at 1081.

Take `C[C@@H]1OC(=O)/C=C/[C@@H](O)CC[C@H](C)OC(=O)Cc2c1nc1c3ncn([C@@H]4O[C@H](CO)[C@@H](O)[C@H]4O)c3ncn21`: the outcome in the experiment on MDA-MB-231 [1], with MCF7, in the experiment with A549 [2], with MDA-MB-231 [7] and in the experiment on A549 [8] was inactive. In addition, the Flu intensity in experiment [4] worked out at 897; in [9], 820. The T/C in experiment [5] is 0.89; in experiment [6], 0.6; in [10] it was 0.54; in experiment [11] it was 0.32.

As to `CO[C@@H]1[C@H](O)[C@@H](CO)O[C@H]1n1cnc2c1ncn1c3c(nc21)[C@H](C)OC(=O)/C=C/[C@@H](O)CC[C@H](C)OC(=O)C3`, the result with MDA-MB-231 [1], with MCF7 and in the experiment with A549 [2] was inactive.

With `C[C@@H]1OC(=O)/C=C/[C@@H](O)CC[C@H](C)OC(=O)[C@H](n2cnc3ncn4c5c(nc4c32)[C@H](C)OC(=O)/C=C/[C@@H](O)CC[C@H](C)OC(=O)C5)CC1=O`, the result in the experiment with MDA-MB-231 [1], in the experiment with MCF7 and in the experiment on A549 [2] was inactive.
